Experimental data from patent US20260272891A1, “TREATMENT OF AUTOIMMUNE DISEASES AND CANCER WITH PROTEASE INHIBITORS” (Lundquist Institute for Biomedical Innovation at …, priority 2023, published 2026).

Assays:
PBMC stimulated by LPS = assay: ELISA cytokines, frozen PBMCs stimulated by LPS; assay type: cell-based, human; conditions: for production of LPS-stimulated IL-6 / production of LPS-stimulated IL-10 / production of LPS-stimulated IL-23 / production of LPS-stimulated TNF-α: dose response, three concentrations, donors D186, D317, D93, versus LPS alone
Method: PBMC were purified by Ficoll-Hypaque gradient centrifugation (Pharmacia, Piscataway, NJ) and stimulated after freshly isolated as described, or cryopreserved in cryoprotective medium consisting of 90% fetal bovine serum (FBS) in combination with 10% dimethyl sulfoxide (DMSO) at 20 to 30 million cells per vial, and thawed for later stimulation as described.
Cytokine dose-response analysis was performed using linear regression model testing dose (ordinal variable) and adjusting for the individual donors.

[1] = test system: Monocytes stimulated by LPS; assay: ELISA cytokines, monocytes stimulated by LPS; assay type: cell-based, human; conditions: for IL-16 levels / IL-6 / IL-10 / IL-23 / TNF-α: 5000 ng/mL, LPS; for IL-6 / IL-10 / IL-23 / TNF-α: donors D186, D317, D93
From the text: For all experiments, peripheral blood mononuclear cells (PBMC) were isolated either from healthy blood donors as above or purchased from HemaCare as Leukopaks (D186, D317 and D93). PBMC were purified by Ficoll-Hypaque gradient centrifugation (Pharmacia, Piscataway, NJ) and stimulated after freshly isolated as described, or cryopreserved in cryoprotective medium consisting of 90% fetal bovine serum (FBS) in combination with 10% dimethyl sulfoxide (DMSO) at 20 to 30 million cells per vial, and thawed for later stimulation as described. For studies with enriched monocytes, PBMC were cultured in 1% FBS in RPMI 1640, and adhered to sterile plastic tissue culture plates for 1-2 hours; followed by washing off nonadherent PBMC. Remaining adherent monocytes were stimulated as described.
Isolated PBMCs were washed once in 1% FCS RPMI and re-suspended in RPMI-1640 (ThermoFisher Scientific) in 1-2% FCS RPMI. For monocyte isolation, 2×10^6 PBMCs per well were plated in 24-well tissue culture treated plate (ThermoFisher Scientific) at 1 ml each well. Monocytes were allowed to adhere in a 5% CO2 container at 37° C. for 2 hr. Nonadherent cells were removed by thorough washing 2 times with 1% FCS RPMI-1640.

[2] = test system: T cells activated using beads; assay: ELISA cytokines, T cell activation with beads; assay type: cell-based, human; conditions: 5000 ng/ml; for IFN-γ production / IL10 production / IL-4 levels / TNF-α production: activated cells (Bead); for IL-2 production: activated cells, compared to negative control
Method: Conditioned media were tested undiluted, or diluted 1:3 and 1:9 to determine tumor necrosis factor (TNF) α concentration.

4T1 cells = assay: Killing of 4T1 cells; assay type: cell-based, mouse
PBMCs = assay: Flow cytometry, FSC versus SSC gating, percentage of PBMCs; conditions: for percentage of PBMCs (FSC versus SSC gating): 24 hrs
CD3+ T cells = assay: Flow cytometry, Propidium iodide/CD3 staining to verify drug toxicity; conditions: for toxicity in gated CD3+ T cells compared to DMSO treatment only: three concentrations, donors D186, D317, D93
[3] = test system: CD14+ cells for monocytes; assay: Flow cytometry, Propidium iodide/CD14 staining to verify drug toxicity
SARS-COV-2 Mpro = SARS-COV-2 Mpro (Severe acute respiratory syndrome coronavirus 2, UniProt P0DTD1); conditions: cited from earlier work
T cells = conditions: cells from mice; cited from earlier work

## CC(C)(C)[C@H](NC(=O)C(F)(F)F)C(=O)N1C[C@H]2[C@@H]([C@H]1C(=O)N[C@H](C#N)C[C@@H]1CCNC1=O)C2(C)C [NMV, nirmatrelvir]
PBMC stimulated by LPS; 5000 ng/ml, LPS, three donors
  IL-23 levels: Two of three donors already had no detectable IL-23 levels
PBMC stimulated by LPS
  production of LPS-stimulated IL-6: diminished
  production of LPS-stimulated IL-10: diminished
  production of LPS-stimulated IL-23: diminished
  production of LPS-stimulated TNF-α: diminished
PBMC stimulated by LPS; frozen PBMCs stimulated with LPS
  cytokines except IL-1β (IL-6, IL-10, IL-23, TNF-α): decrease
[1]; donors 317 and 93
  IL-16 levels: increasing levels
[1]
  IL-6: decrease
  IL-10: decrease
  IL-23: decrease
  TNF-α: decrease
[2]
  IFN-γ production: lower
  IL10 production: lower
  IL-4 levels: lower when compared to all groups with activated cells
  TNF-α production: low
  IL-2 production: elevated
[2]; listed as NMR
  TNF-α production: lower
4T1 cells
  killing of 4T1 cells: killed 4T1 cells in a dose responsive manner
PBMCs; Donor 93, 1250 ng
  percentage of PBMCs (FSC versus SSC gating): 74.8%
PBMCs; Donor 93, 2500 ng
  percentage of PBMCs (FSC versus SSC gating): 76.2%
PBMCs; Donor 93, 5000 ng
  percentage of PBMCs (FSC versus SSC gating): 54.6%
PBMCs; Donor 186, 1250 ng
  percentage of PBMCs (FSC versus SSC gating): 52.8%
PBMCs; Donor 186, 2500 ng
  percentage of PBMCs (FSC versus SSC gating): 44.8%
PBMCs; Donor 186, 5000 ng
  percentage of PBMCs (FSC versus SSC gating): 47.7%
PBMCs; Donor 317, 1250 ng
  percentage of PBMCs (FSC versus SSC gating): 55.4%
PBMCs; Donor 317, 2500 ng
  percentage of PBMCs (FSC versus SSC gating): 64.4%
PBMCs; Donor 317, 5000 ng
  percentage of PBMCs (FSC versus SSC gating): 55.9%
PBMCs; all different concentrations, three donors
  Peripheral Blood Mononuclear Cells' viability: Do Not Affect
CD3+ T cells; Donor 93, 1250 ng
  cells double positive for Propidium iodide (PI) and CD3 (dead cells): 19.2%
CD3+ T cells; Donor 93, 2500 ng
  cells double positive for Propidium iodide (PI) and CD3 (dead cells): 17.1%
CD3+ T cells; Donor 93, 5000 ng
  cells double positive for Propidium iodide (PI) and CD3 (dead cells): 16.0%
CD3+ T cells; Donor 186, 1250 ng
  cells double positive for Propidium iodide (PI) and CD3 (dead cells): 29.9%
CD3+ T cells; Donor 186, 2500 ng
  cells double positive for Propidium iodide (PI) and CD3 (dead cells): 31.1%
CD3+ T cells; Donor 186, 5000 ng
  cells double positive for Propidium iodide (PI) and CD3 (dead cells): 28.5%
CD3+ T cells; Donor 317, 1250 ng
  cells double positive for Propidium iodide (PI) and CD3 (dead cells): 17.9%
CD3+ T cells; Donor 317, 2500 ng
  cells double positive for Propidium iodide (PI) and CD3 (dead cells): 16.9%
CD3+ T cells; Donor 317, 5000 ng
  cells double positive for Propidium iodide (PI) and CD3 (dead cells): 17.1%
CD3+ T cells
  toxicity in gated CD3+ T cells compared to DMSO treatment only: similar
[3]; Donor 93, 1250 ng
  cells double positive for Propidium iodide (PI) and CD14 (dead cells): 0.90%
[3]; Donor 93, 2500 ng
  cells double positive for Propidium iodide (PI) and CD14 (dead cells): 0.74%
[3]; Donor 93, 5000 ng
  cells double positive for Propidium iodide (PI) and CD14 (dead cells): 0.64%
[3]; Donor 186, 1250 ng
  cells double positive for Propidium iodide (PI) and CD14 (dead cells): 0.75%
[3]; Donor 186, 2500 ng
  cells double positive for Propidium iodide (PI) and CD14 (dead cells): 1.28%
[3]; Donor 186, 5000 ng
  cells double positive for Propidium iodide (PI) and CD14 (dead cells): 0.74%
[3]; Donor 317, 1250 ng
  cells double positive for Propidium iodide (PI) and CD14 (dead cells): 0.37%
[3]; Donor 317, 2500 ng
  cells double positive for Propidium iodide (PI) and CD14 (dead cells): 0.31%
[3]; Donor 317, 5000 ng
  cells double positive for Propidium iodide (PI) and CD14 (dead cells): 0.32%

## CC(C)c1nc(CN(C)C(=O)N[C@H](C(=O)N[C@@H](Cc2ccccc2)C[C@H](O)[C@H](Cc2ccccc2)NC(=O)OCc2cncs2)C(C)C)cs1 [RTV, ritonavir]
PBMC stimulated by LPS
  production of LPS-stimulated IL-6: no effect
  production of LPS-stimulated IL-10: no effect
  production of LPS-stimulated IL-23: no effect
  production of LPS-stimulated TNF-α: no effect
[1]; donor186
  IL-16 levels: Slightly decreased
[1]; donors 317 and 93
  IL-16 levels: increasing levels
[1]
  IL-6: decrease
  IL-10: decrease
  IL-23: decrease
  TNF-α: decrease
[1]; monocytes, 5000 ng/ml
  IL-1β: decreased
[2]
  IFN-γ production: higher levels
  IL10 production: higher
  IL-4 levels: higher
  TNF-α production: high levels
  IL-2 production: elevated
4T1 cells
  killing of 4T1 cells: killed 4T1 cells in a dose responsive manner
SARS-COV-2 Mpro
  activity against SARS-COV-2 Mpro: lacks activity
T cells
  IL2, IFN-gamma and TNF-alpha secretion: decreasing
PBMCs; Donor 93, 1250 ng
  percentage of PBMCs (FSC versus SSC gating): 60.4%
PBMCs; Donor 93, 2500 ng
  percentage of PBMCs (FSC versus SSC gating): 62.9%
PBMCs; Donor 93, 5000 ng
  percentage of PBMCs (FSC versus SSC gating): 55.9%
PBMCs; Donor 186, 1250 ng
  percentage of PBMCs (FSC versus SSC gating): 48.0%
PBMCs; Donor 186, 2500 ng
  percentage of PBMCs (FSC versus SSC gating): 51.3%
PBMCs; Donor 186, 5000 ng
  percentage of PBMCs (FSC versus SSC gating): 44.9%
PBMCs; Donor 317, 1250 ng
  percentage of PBMCs (FSC versus SSC gating): 61.3%
PBMCs; Donor 317, 2500 ng
  percentage of PBMCs (FSC versus SSC gating): 56.2%
PBMCs; Donor 317, 5000 ng
  percentage of PBMCs (FSC versus SSC gating): 57.4%
CD3+ T cells; Donor 93, 1250 ng
  cells double positive for Propidium iodide (PI) and CD3 (dead cells): 19.5%
CD3+ T cells; Donor 93, 2500 ng
  cells double positive for Propidium iodide (PI) and CD3 (dead cells): 19.8%
CD3+ T cells; Donor 93, 5000 ng
  cells double positive for Propidium iodide (PI) and CD3 (dead cells): 19.5%
CD3+ T cells; Donor 186, 1250 ng
  cells double positive for Propidium iodide (PI) and CD3 (dead cells): 27.9%
CD3+ T cells; Donor 186, 2500 ng
  cells double positive for Propidium iodide (PI) and CD3 (dead cells): 28.9%
CD3+ T cells; Donor 186, 5000 ng
  cells double positive for Propidium iodide (PI) and CD3 (dead cells): 28.6%
CD3+ T cells; Donor 317, 1250 ng
  cells double positive for Propidium iodide (PI) and CD3 (dead cells): 18.1%
CD3+ T cells; Donor 317, 2500 ng
  cells double positive for Propidium iodide (PI) and CD3 (dead cells): 17.5%
CD3+ T cells; Donor 317, 5000 ng
  cells double positive for Propidium iodide (PI) and CD3 (dead cells): 17.8%
CD3+ T cells
  toxicity in gated CD3+ T cells compared to DMSO treatment only: similar
[3]; Donor 93, 1250 ng
  cells double positive for Propidium iodide (PI) and CD14 (dead cells): 0.90%
[3]; Donor 93, 2500 ng
  cells double positive for Propidium iodide (PI) and CD14 (dead cells): 1.12%
[3]; Donor 93, 5000 ng
  cells double positive for Propidium iodide (PI) and CD14 (dead cells): 0.81%
[3]; Donor 186, 1250 ng
  cells double positive for Propidium iodide (PI) and CD14 (dead cells): 2.14%
[3]; Donor 186, 2500 ng
  cells double positive for Propidium iodide (PI) and CD14 (dead cells): 1.71%
[3]; Donor 186, 5000 ng
  cells double positive for Propidium iodide (PI) and CD14 (dead cells): 1.71%
[3]; Donor 317, 1250 ng
  cells double positive for Propidium iodide (PI) and CD14 (dead cells): 0.42%
[3]; Donor 317, 2500 ng
  cells double positive for Propidium iodide (PI) and CD14 (dead cells): 0.38%
[3]; Donor 317, 5000 ng
  cells double positive for Propidium iodide (PI) and CD14 (dead cells): 0.44%
